Test results as given in publication PMC7772550 (Heliyon, 2020).

Tested on: NO production
Assay: nitric oxide
Assay type: cell-based
Conditions: read-out: NO production inhibition IC50

Q: Which IC50 does the source give for `COc1ccc2c(c1)c(CC(=O)O)c(C)n2C(=O)c1ccc(Cl)cc1` [Indomethacin] here?
A: The IC50 was 32.2 µM.
